The source of these data is article PMC7108851 (Journal of Virology, 2020).

A word on the EC90: it is the concentration at which the effect reaches the 90% level.

Data set [1] is classed as in vivo, female BLT mice. To be noted: for genital tract tissue concentrations relative to what has been observed in women: single dose TFV 150 mg/kg, higher than in women (54). The procedure: For RPV LA, 14 mice were injected intramuscularly in the flank with 3 mg RPV LA, for a dose of approximately 150 mg/kg. Two mice were euthanized at 1, 3, 6, 12, 24, 48, and 168 h postinjection. For TFV/FTC, an additional 12 mice were injected intraperitoneally with 150 mg/kg TFV and 100 mg/kg FTC. Two mice were euthanized at 1, 3, 6, 12, 24, and 48 h postinjection. Blood was drawn at each time point until euthanasia, and plasma was separated. At necropsy, female genital tract and colon/rectum were collected, weighed, and immediately flash-frozen dry.
RPV, TFV, and FTC were extracted from mouse plasma with isotopically labeled internal standards (RPV-d6; TFV-^13C5; and FTC-^13C, ^15N2, respectively) using protein precipitation. TFV and FTC were separated on a Waters Atlantis T3 (2.1 by 50 mm, 3 μm) high-performance liquid chromatography (HPLC) column and RPV on an Xterra MS C18 (2.1 by 50 mm, 3.5 μm) HPLC column. The calibrated ranges were 1 to 4,000 ng/ml (TFV and FTC) or 1 to 10,000 ng/ml (RPV). Calibration standards and quality control (QC) samples were prepared in blank plasma with an acceptance criteria of ±20%.
Frozen tissue biopsy specimens were homogenized in 1 ml of cold 70:30 acetonitrile–1 mM ammonium phosphate (pH 7.4). RPV, TFV, FTC, TFVdp, and FTCtp were extracted from tissue homogenate with the following isotopically labeled internal standards: RPV-d6; TFV-^13C5; FTC-^13C, ^15N2; and TFVdp-^13C5 (for both TFVdp and FTCtp). For quantification, analytes and internal standards were separated on a Waters Atlantis T-3 C18 HPLC column (TFV and FTC), a ThermoBioBasic AX HPLC column (TFVdp and FTCtp), or an Xterra MS C18 (2.1 by 50 mm, 3.5 μm) HPLC column (RPV). The calibrated ranges were 0.300 to 300 ng/ml (TFV, FTC, TFVdp, and FTCtp) and 1 to 200 ng/ml (RPV). Resulting concentrations were normalized to tissue weight assuming a tissue density of 1 g/ml ([86]) and reported as nanograms or femtomole per gram. Calibration standards and QC samples were prepared in blank tissue homogenate with an acceptance criteria of ±20%.

A further data set relates to Y181C. Also noted: method as in PMID 19933797. As to conditions: cited from earlier work.
In another data set the test system is Y181I/V. More on the design: method as in PMID 19933797. As to conditions: cited from earlier work.
The subject of data set [2] is simian immunodeficiency virus (SIV). As to conditions: cited from earlier work.
The conditions of data set [3]: even at a high dose; cited from earlier work.
A further data set has as its system Y181I HIV-1NL4-BAL. The data set is described as follows: Drug susceptibility assay in TZM-bl cells. In kind it is cell-based. To be noted: Fig. 1A.
The conditions of data set [4]: cited from earlier work.
The test system of the next data set is E138K. Description: RPV resistance of RT mutant (data not shown). In kind it is cell-based, HIV-1.
In another data set the test system is Y181V. Also noted: method as in earlier work. As to conditions: cited from earlier work.
A further data set concerns WT HIV-1CH185. The data set is described as follows: Drug susceptibility assay in TZM-bl cells. In kind it is cell-based. As to conditions: Human immunodeficiency virus 1, Fig. 9B. The procedure: (§1) WT, Y181C, and Y181V HIV-1 stocks were phenotyped for resistance to RPV or RPV LA as previously described ([68]). Briefly, TZM-bl cells ([84]) were seeded at 5 × 10^3 cells in 96-well cell culture-treated, white-walled plates (PerkinElmer) in phenol red-free Dulbecco’s modified Eagle’s medium (DMEM; Life Technologies) supplemented with 10% fetal bovine serum (FBS; Atlanta Biologicals) and 100 U/ml penicillin, 100 μg/ml streptomycin, and 0.292 mg/ml L-glutamine (PSG; Life Technologies). The following day, virus was added at a multiplicity of infection (MOI) of 0.05 in the presence or absence of RPV dilutions in triplicate. Plates were incubated at 37°C for 48 h, and luciferase was measured using Britelite Plus reagent (PerkinElmer) on a Luminoskan Ascent microplate luminometer (Thermo Scientiﬁc). Relative light units (RLU) were converted to percent infection by dividing the RLU of each drug dilution by the RLU of the 100% infection control in the absence of drug. Wells containing cells with no virus and no drug were used to normalize for background luciferase output. The EC50 was calculated by log transforming drug concentrations and using a four-parameter variable-slope nonlinear regression for curve-ﬁtting analysis using PRISM 6 (GraphPad).

A further data set concerns Y181V HIV-1NL4-BAL. Description: Drug susceptibility assay in TZM-bl cells. In kind it is cell-based. The procedure:
as §1

Another data set has as its system Y181C HIV-1NL4-BAL. The data set is described as follows: Drug susceptibility assay in TZM-bl cells. It is filed as cell-based. To be noted: Fig. 1A. The procedure: as §1
The next data set has as its system WT HIV-1NL4-BAL. Description: Drug susceptibility assay in TZM-bl cells. In kind it is cell-based. As to conditions: Human immunodeficiency virus 1, BAL. The procedure:
as §1

The subject of another data set is Y181V HIV-1CH185. Description: Drug susceptibility assay in TZM-bl cells. In kind it is cell-based. As to conditions: Fig. 9B. The procedure: as §1
For another data set, the system named is HIV-1. As to conditions: cited from earlier work.

Molecules are shown by their SMILES. Where “and” joins values, the source holds several entries; their conditions need not be identical. Equal values may be shown once. Read-outs that look alike come from different tables or passages of the source.

As for `CC(Cn1cnc2c(N)ncnc21)OCP(=O)(O)OP(=O)(O)OP(=O)(O)O` (stereo in doubt) [TFVdp, TFV diphosphate], the “genital tract tissue concentrations relative to what has been observed in women” value in [1] was “approximately 10 fold”.
`Cc1ccnc2c1NC(=O)c1cccnc1N2C1CC1` [nevirapine]: the “resistance conferred by Y181C” value in the data set with Y181C is recorded as over 40 fold. In addition, the “resistance conferred by Y181I/V” value with Y181I/V was over 60 fold.
`Nc1nc(=O)n([C@@H]2CS[C@H](COP(=O)(O)OP(=O)(O)OP(=O)(O)O)O2)cc1F` [FTCtp, FTC triphosphate]: the “tissue FTC triphosphate (FTCtp) concentrations” value in data set [1] (female genital tract, 12 h, 24 h, and 48 h postdose, single dose PK study) is recorded as “undetectable”.
For the compound `C[C@H](Cn1cnc2c(N)ncnc21)OCP(=O)(O)O` [TFV, tenofovir], in data set [1], the “genital tract tissue concentrations relative to what has been observed in women” value was “approximately 10 fold”.
In the case of `Cc1cc(/C=C/C#N)cc(C)c1Nc1ccnc(Nc2ccc(C#N)cc2)n1` [RPV, rilpivirine], in data set [2], the “inhibition of simian immunodeficiency virus (SIV)” value is recorded as “does not inhibit”. The metabolism in macaques result in data set [3] was “rapidly metabolized”. Also, the “fold increase in EC50 (RPV resistance) vs WT HIV-1NL4-BAL” value is on record as 23 fold in the data set with Y181I HIV-1NL4-BAL; 27 fold in the data set with Y181V HIV-1NL4-BAL (Y181V, TZM-bl cells, Fig. 1A); 3 fold in the data set with Y181C HIV-1NL4-BAL. Further, in the data set with Y181C, the “resistance conferred by Y181C” value was 3 fold. Also, the protein binding entry in [4] is given as “highly protein bound”. Also, the “resistance conferred by E138K” value in the data set with E138K was 2 fold. Also, in the data set on Y181V, the “resistance conferred by Y181V” value was “approximately 20 fold”. For the same compound, the EC50 in the data set on WT HIV-1CH185 was 0.21 ± 0.003 nM; with Y181V HIV-1NL4-BAL (Human immunodeficiency virus 1, BAL, TZM-bl cells, Fig. 9B), 7.3 ± 1.3 nM; in the data set on WT HIV-1NL4-BAL (Fig. 1A, read-out: 50% effective concentration (EC50)), 0.54 nM and 0.0002 µg/mL; in the data set with WT HIV-1NL4-BAL (Fig. 9B, read-out: average EC50), 0.34 ± 0.07 nM; in the data set with WT HIV-1NL4-BAL (RPV LA compared with soluble RPV, Fig. 2, read-out: EC50), 0.6 nM and 0.00022 µg/mL; with Y181V HIV-1CH185 (Human immunodeficiency virus 1, TZM-bl cells) it was 12 ± 1.5 nM. The “fold change from the level for WT HIV-1NL4-BAL” value with Y181V HIV-1NL4-BAL (Y181V HIV-1NL4-BAL, Fig. 9B) is given as 21 fold; with Y181V HIV-1CH185 (Y181V HIV-1CH185) it was 36 fold. The “reduced susceptibility to RPV of virus encoding Y181V” value in the data set on Y181V HIV-1NL4-BAL (discussion) is listed as over 20 fold. Also, the “RPV resistance of Y181V HIV-1” value with Y181V HIV-1NL4-BAL (in the viruses used for this study (abstract)) is recorded as 30 fold. In the data set on HIV-1, the “protein-adjusted 90% effective concentration (EC90)” value is 0.012 µg/mL and 0.0121 µg/mL. Also, in the data set with HIV-1 (read-out: protein-adjusted EC90), the concentration for an effect of 90% (EC90) is 33 nM.
